Source: patent US11780841B2, “3,6-methano-1H-pyrrolo[3,2-b]pyridine and 3,6-methano-1H-pyrrolo[3,2-c]pyridine compounds and medicaments using same” (priority 2018, dated 2023)

test system: recombinant rabies virus 1088 strain expressing Gaussia Luciferase (GLuc) (1088/GLuc); assay type: cell-based; details: read-out: Anti-rabies activity

First: CC(C)CCC1C2C=NC3(C(=O)NCc4ccccc4)C(C2)CN(Cc2ccc(O)cc2)C13 (stereo not drawn) [IIB-101]
Second: CC(C)CC1C2C=NC3(C(=O)NCc4ccc5ccccc5c4)C(C2)CN(Cc2ccccc2)C13 (stereo not drawn) [IIB-102]
The IC50 of the first is higher: 5 to 10 µM for the first, < 5 µM for the second.

`CC(C)CCN1CC2CC3C=NC2(C(=O)NCc2ccc(Cl)cc2)C1C3CC(C)C` (stereo not drawn) [IIB-103] and `CC(C)CCN1CC2CC3C=NC2(C(=O)NCc2ccc(F)cc2)C1C3CC(C)C` (stereo not drawn) [IIB-104] fall in the same range of IC50: 5 to 10 µM for the first, 5 to 10 µM for the second.

`CC(C)CC1C2C3C=NC1(C(=O)NCc1ccccc1)CC3CN2Cc1ccc(Cl)cc1` (stereo not drawn) [IIF-83] and `Cc1ccc(CN2CC3CC4(C(=O)NCc5ccccc5)N=CC3C2C4CC(C)C)cc1` (stereo not drawn) [IIF-86] cannot be ordered by IC50: < 5 µM for the first, < 5 µM for the second.

`CC(C)CC1C2C3C=NC1(C(=O)NCc1ccccc1)CC3CN2Cc1cccc(Cl)c1` (stereo not drawn) [IIF-84] and `COc1ccc(CN2CC3CC4(C(=O)NCc5ccccc5)N=CC3C2C4CC(C)C)cc1` (stereo not drawn) [IIF-85] fall in the same range of IC50: 5 to 10 µM for the first, 5 to 10 µM for the second.

First: CC(C)CC1C2C3C=NC1(C(=O)NCc1ccccc1)CC3CN2Cc1ccc(N(C)C)cc1 (stereo not drawn) [IIF-94]
Second: CC(C)CC1C2C3C=NC1(C(=O)NCc1ccccc1)CC3CN2Cc1ccc(C(C)(C)C)cc1 (stereo not drawn) [IIF-95]
The IC50 of the first is higher: 5 to 10 µM for the first, < 5 µM for the second. The second is the more potent here.

First: CC(C)CC1C2C3C=NC1(C(=O)NCc1ccccc1)CC3CN2Cc1ccc(OC(F)(F)F)cc1 (stereo not drawn) [IIF-96]
Second: CCOc1ccc(CN2CC3CC4(C(=O)NCc5ccccc5)N=CC3C2C4CC(C)C)cc1 (stereo not drawn) [IIF-97]
The IC50 of the first is lower: 5 to 10 µM for the first, 10 to 30 µM for the second. The first is the more potent here.

First: CC(C)CCC1C2C3C=NC1(C(=O)NCc1ccccc1)CC3CN2Cc1ccc(O)cc1 (stereo not drawn) [IIF-101]
Second: CC(C)CC1C2C3C=NC1(C(=O)NCc1ccc4ccccc4c1)CC3CN2Cc1ccccc1 (stereo not drawn) [IIF-102]
The IC50 of the first is higher: 5 to 10 µM for the first, < 5 µM for the second.

`CC(C)CCN1CC2CC3(C(=O)NCc4ccc(Cl)cc4)N=CC2C1C3CC(C)C` (stereo not drawn) [IIF-103] and `CC(C)CCN1CC2CC3(C(=O)NCc4ccc(F)cc4)N=CC2C1C3CC(C)C` (stereo not drawn) [IIF-104] fall in the same range of IC50: 5 to 10 µM for the first, 5 to 10 µM for the second.

same assay, conditions: read-out: anti-rabies virus activity IC50

For `NC(=O)c1nc(F)c[nH]c1=O` [Compound T-705, Favipiravir], the IC50 was 30 µM.

test system: rabies virus; details: mouse, in vivo; cited from earlier work

In the case of `NC(=O)c1nc(F)c[nH]c1=O` [Compound T-705, Favipiravir], the “prophylactic effect on rabies virus” value is listed as “significant prophylactic effect was confirmed”.
